Results on one molecule are retold here after publication PMC8067507, “Aryl Urea Based Scaffolds for Multitarget Drug Discovery in Anticancer Immunotherapies” (Pharmaceuticals, 2021).

Data set [1] concerns A549 (pulmonary adenocarcinoma). As to the kind of experiment: Cell proliferation assay (MTT). The note with it: Homo sapiens, A549, 48 h, 2 days incubation, average ± SD of three experiments. Format: cell-based. The text has this:
(§1) The ability of Ureas 13–33 to inhibit cell proliferation was established by means of their IC50 values towards the human tumor cell lines HT-29 (colon adenocarcinoma), MCF-7 (breast adenocarcinoma), HeLa (epithelioid cervix carcinoma) and A549 (pulmonary adenocarcinoma), as well as towards the endothelial cell line HMEC-1 (human microvascular endothelial cells) and the non-tumor cell line HEK-293 (human embryonic kidney cells).
(§2) HT-29, MCF-7, HeLa, A549 and HEK-293 cell lines were maintained in Dulbecco’s modified Eagle’s medium (DMEM) containing glucose (1 g/L), glutamine (2 mM), penicillin (50 μg/mL), streptomycin (50 μg/mL), and amphotericin B (1.25 μg/mL), supplemented with 10% FBS. HMEC-1 cell line was maintained in Dulbecco’s modified Eagle’s medium (DMEM)/low glucose containing glutamine (2 mM), penicillin (50 μg/mL), streptomycin (50 μg/mL), and amphotericin B (1.25 μg/mL), supplemented with 10% FBS. For the development of tube formation assays in Matrigel, HMEC-1 cells were cultured in EGM-2MV Medium supplemented with EGM-2MV SingleQuots.
(§3) In 96-well plates, 3 × 10^3 (HeLa, A549, HMEC-1, HEK-293) or 5 × 10^3 (HT-29, MCF-7) cells per well were incubated with serial dilutions of the tested compounds in a total volume of 100 μL of their respective growth media. The 3-(4,5-dimethylthiazol-2-yl)-2,5-diphenyltetrazolium bromide (MTT; Sigma Chemical Co.) dye reduction assay in 96-well microplates was used. After 2 days of incubation (37 °C, 5% CO2 in a humid atmosphere), 10 μL of MTT (5 mg/mL in phosphate-buffered saline, PBS) was added to each well, and the plate was incubated for a further 3 h (37 °C). After that, the supernatant was discarded and replaced by 100 µL of DMSO to dissolve formazan crystals. The absorbance was then read at 540 nm by spectrophotometry. For all concentrations of compound, cell viability was expressed as the percentage of the ratio between the mean absorbance of treated cells and the mean absorbance of untreated cells. Three independent experiments were performed, and the IC50 values (i.e., concentration half inhibiting cell proliferation) were graphically determined using GraphPad Prism 4 software.

The test system of data set [2] is HEK-293 (human embryonic kidney cells). The data set can be described thus: Cell proliferation assay (MTT). Format: cell-based. The following applies: HEK293, 48 h, 2 days incubation, average ± SD of three experiments.
Source text: as §1, §2, §3

In data set [3] the test system is HMEC-1 (human microvascular endothelial cells). The data set can be described thus: Cell proliferation assay (MTT). Format: cell-based. The following applies: HMEC-1, 48 h, 2 days incubation, average ± SD of three experiments.
Source text: as §1, §2, §3

In data set [4] the test system is HT-29 (colon adenocarcinoma). The data set can be described thus: Cell proliferation assay (MTT). Format: cell-based. The note with it: Homo sapiens, HT-29, 48 h, 2 days incubation, average ± SD of three experiments.
Source text: as §1, §2, §3

Data set [5] has as its system HeLa (epithelioid cervix carcinoma). As to the kind of experiment: Cell proliferation assay (MTT). The following applies: Homo sapiens, 48 h, 2 days incubation, average ± SD of three experiments. Format: cell-based.
Source text: as §1, §2, §3

Data set [6] deals with MCF-7 (breast adenocarcinoma). As to the kind of experiment: Cell proliferation assay (MTT). Format: cell-based. The note with it: Homo sapiens, MCF7, 48 h, 2 days incubation, average ± SD of three experiments.
Source text: as §1, §2, §3

The next data set has as its system HMEC-1 cells. The data set can be described thus: Tube formation inhibition assay. Format: cell-based, human. The note with it: HMEC-1 on Matrigel, 20 h incubation; average of three experiments. On the procedure: as §2
Wells of an IBIDI μ-slide angiogenesis (IBIDI, Martinsried, Germany) were coated with 12 μL of Matrigel® (10 mg/mL, BD Biosciences) at 4 °C. After gelatinization at 37 °C for 30 min, HMEC-1 cells were seeded at 2 × 10^4 cells/well in 35 μL of culture medium on top of the Matrigel and were incubated 30 min at 37 °C while are attached. Then, compounds were added dissolved in 35 μL of culture medium and after 20 h of incubation at 37 °C, tube destruction was evaluated.

The test system of the next data set is c-Myc. The data set can be described thus: c-Myc quantification by flow cytometry in A-549. The following applies: A-549, 10 μM, 24 h, referred to control (DMSO). Format: cell-based, human. As to the method:
(§4) We evaluated the effect of the selected compounds on PD-L1 and on c-Myc proteins by flow cytometry after 24 h treatment at 10 μM concentration of compounds. Both, PD-L1 and c-Myc were relatively determined using DMSO treated cells as a negative control and BMS-8 as a positive one.
(§5) For the detection of total PD-L1 and c-Myc, cancer cells were seeded (3 × 10^5 cells/well) in 6-well plates and were incubated with the corresponding compounds for 24 h. Then they were collected, fixed, treated with 0.5% Triton^TM X-100 and stained with Alexa Fluor® 647 Rabbit monoclonal Anti-PD-L1 (ab215251) and FITC Rabbit monoclonal anti-c-Myc (ab223913).
(§6) We also checked results performing ELISA tests. For ELISA tests, lysates were collected, protein quantification was carried out by Bradford test and, then, PD-L1 and c-Myc were quantified using Human PD-L1 ELISA Kit 28-8 (ab214565) and c-Myc (Total) Human ELISA Kit (KHO2041), respectively, according to the manufacturer’s instructions.
On the technique in general: In flow cytometry, cells or beads pass a laser one at a time.

The next data set deals with PD-L1 (Homo sapiens, UniProt Q9NZQ7). As to the kind of experiment: PD-L1 quantification by flow cytometry in A-549. Format: cell-based. Also noted: endogenous in cells; host or cells: A-549 cancer cells. The following applies: A-549, 10 μM, 24 h, referred to control (DMSO). As to the method:
as §4, §5, §6

Data set [7] deals with T1, VEGFR-2 (Homo sapiens, UniProt P35968). As to the kind of experiment: VEGFR-2 quantification by flow cytometry in HMEC-1. Format: cell-based. Also noted: Both membrane and total VEGFR-2 were relatively determined using dimethyl sulfoxide (DMSO) treated cells as a negative control; endogenous in cells; host or cells: HMEC-1 (human microvascular endothelial cells). The following applies: 10 µM, 24 h, relative to DMSO control.
T1 sequence (P35968 20-1356): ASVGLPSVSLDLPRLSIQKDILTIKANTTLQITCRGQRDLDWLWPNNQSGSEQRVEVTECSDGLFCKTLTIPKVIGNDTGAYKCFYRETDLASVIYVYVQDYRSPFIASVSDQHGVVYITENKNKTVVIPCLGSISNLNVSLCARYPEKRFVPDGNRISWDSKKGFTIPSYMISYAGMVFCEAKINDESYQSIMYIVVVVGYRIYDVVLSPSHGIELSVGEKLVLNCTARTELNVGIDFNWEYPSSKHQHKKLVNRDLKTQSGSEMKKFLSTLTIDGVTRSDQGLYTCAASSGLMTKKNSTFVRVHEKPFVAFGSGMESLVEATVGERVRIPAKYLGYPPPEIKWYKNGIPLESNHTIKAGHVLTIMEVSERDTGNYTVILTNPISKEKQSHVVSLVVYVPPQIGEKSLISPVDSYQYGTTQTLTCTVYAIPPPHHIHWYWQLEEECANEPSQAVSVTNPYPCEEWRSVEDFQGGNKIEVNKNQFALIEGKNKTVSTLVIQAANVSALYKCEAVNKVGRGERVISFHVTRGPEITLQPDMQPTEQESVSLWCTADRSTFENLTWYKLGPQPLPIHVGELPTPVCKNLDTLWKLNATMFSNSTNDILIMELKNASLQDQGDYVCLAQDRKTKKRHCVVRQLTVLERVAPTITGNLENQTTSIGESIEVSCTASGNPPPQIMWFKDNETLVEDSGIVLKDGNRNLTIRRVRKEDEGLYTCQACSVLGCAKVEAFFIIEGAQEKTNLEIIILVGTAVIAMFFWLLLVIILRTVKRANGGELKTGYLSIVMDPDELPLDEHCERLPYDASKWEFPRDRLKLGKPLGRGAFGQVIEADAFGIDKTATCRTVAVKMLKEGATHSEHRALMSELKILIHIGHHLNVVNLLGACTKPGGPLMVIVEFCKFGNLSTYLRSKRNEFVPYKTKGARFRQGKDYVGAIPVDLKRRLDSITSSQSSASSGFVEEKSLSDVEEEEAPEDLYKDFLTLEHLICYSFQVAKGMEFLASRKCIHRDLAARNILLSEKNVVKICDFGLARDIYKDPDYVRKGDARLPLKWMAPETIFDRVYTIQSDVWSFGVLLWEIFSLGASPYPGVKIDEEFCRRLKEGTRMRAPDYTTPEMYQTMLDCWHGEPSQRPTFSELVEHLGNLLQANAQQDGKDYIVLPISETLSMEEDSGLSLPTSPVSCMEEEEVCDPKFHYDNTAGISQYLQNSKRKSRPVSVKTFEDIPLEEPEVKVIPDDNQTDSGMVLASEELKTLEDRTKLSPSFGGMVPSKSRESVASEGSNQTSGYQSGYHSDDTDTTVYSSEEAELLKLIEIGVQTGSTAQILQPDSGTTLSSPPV
Description: (§7) We performed the study on both a HT-29 cancer cell line and a human microvessel endothelial cell line (HMEC-1). […] The effect of these selected derivatives on VEGFR-2, on HT-29 tumor cell line and on human microvessel endothelial cells (HMEC) was determined by flow cytometry technique. […] For these assays, cells were incubated for 24 h in the presence of the corresponding compounds at 10 µM concentration.

For data set [8], the target named is T1, VEGFR-2. As to the kind of experiment: VEGFR-2 quantification by flow cytometry in HT-29. The following applies: 24 h. Format: cell-based. Set-up: Both membrane and total VEGFR-2 were relatively determined using dimethyl sulfoxide (DMSO) treated cells as a negative control; endogenous in cells; host or cells: HT-29 (colon adenocarcinoma) and HMEC-1 (human microvascular endothelial cells).
Description: as §7

[9] abbreviates: HT-29, 10 µM, relative to DMSO control.

Bounds are passed on as bounds.

Sequence of PD-L1 (Q9NZQ7 19-290): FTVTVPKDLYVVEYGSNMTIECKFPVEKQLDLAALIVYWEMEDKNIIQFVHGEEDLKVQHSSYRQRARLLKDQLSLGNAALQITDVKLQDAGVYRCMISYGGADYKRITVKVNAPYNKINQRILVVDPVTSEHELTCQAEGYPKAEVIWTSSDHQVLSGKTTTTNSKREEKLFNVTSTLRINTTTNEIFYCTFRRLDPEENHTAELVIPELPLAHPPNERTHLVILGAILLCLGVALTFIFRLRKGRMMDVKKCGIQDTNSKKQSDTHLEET

The term IC50 denotes the midpoint of a concentration-inhibition curve. Lower therefore signals inhibition by little substance. As usually defined, the melting point is the temperature, or range, at which the solid turns liquid. As usually defined, the inhibition is the drop in the measured response relative to a control, in per cent. On to `COc1ccc(/C=C\c2cccc(NC(=O)Nc3ccc(Br)cc3)c2)cc1` [Compound 16], for which the melting point was 173 °C. In data set [1], this molecule came in with an IC50 of 12 ± 2 µM. In data set [2], this molecule registered an IC50 of 10 ± 2 µM. For the same molecule, the IC50 in [3] was found to be 27 ± 8 µM. Further, the IC50 in data set [4] was determined as 17 ± 1 µM. The molecule also came in with an IC50 in [5] of 12 ± 4 µM. The concentration for half-maximal inhibition (IC50) in [6] was 24 ± 7 µM. The “Minimum Active Conc. (inhibition of tube formation)” value in the data set on HMEC-1 cells is 10 µM. Also, the “c-Myc (%) relative expression” value with c-Myc came to 29 ± 5%. The “PD-L1 (%) relative expression” value at PD-L1 is listed as 23 ± 8%. On VEGFR-2 [7], the “Membrane VEGFR-2 (%)” value is listed as 45 ± 8% and the “Total VEGFR-2 (%)” value is reported as 59 ± 5%. In addition, at VEGFR-2 [8] (10 µM, statement for HT-29 and HMEC-1, read-out: inhibition of both membrane and total VEGFR-2), the inhibition at 10 µM was above 50%. In addition, at VEGFR-2 [8] (setting [9]), the “Membrane VEGFR-2 (%)” value is reported as 39 ± 9% and the “Total VEGFR-2 (%)” value was determined as 55 ± 10%.
